From patent US12396459B2, “Synergistically effective herbicide composition comprising pyridate and at least one defined 4-HPPD inhibitor” (BELCHIM CROP PROTECTION NV, priority 2018, dated 2025)

Tests used:
Assay type in all cases: in vivo
[1] = test system: Veronica persica; test: Examples 6-8 herbicidal effect: VERPE; conditions: 7 DAA
[2] = test system: Solanum nigrum; test: Examples 6-8 herbicidal effect: SOLNI; conditions: 7 DAA
[3] = test system: Geranium dissectum; test: Examples 6-8 herbicidal effect: GERDI; conditions: 7 DAA
[4] = test system: Matricaria chamomilla; test: Examples 6-8 herbicidal effect: MATCH; conditions: 7 DAA
[5] = test system: Echinochloa crus-galli; test: Examples 6-8 herbicidal effect: ECHCG; conditions: 7 DAA
[6] = test system: Poa annua; test: Examples 6-8 herbicidal effect: POAAN; conditions: 7 DAA
[7] = test system: Chenopodium album; test: Examples 6-8 herbicidal effect: CHEAL; conditions: 7 DAA
[8] = test system: Digitaria sanguinalis; test: Examples 6-8 herbicidal effect: DIGSA; conditions: 7 DAA
[9] = test system: Setaria verticillata; test: Examples 6-8 herbicidal effect: SETVE; conditions: 7 DAA
[10] = test system: Amaranthus retroflexus; test: Field trial post-emergence in maize: AMARE; conditions: 13-14 DAA; # = 1; g a.c./ha: PYR 450, TOP 12.4, PYR + TOP 450 + 12.4
Method: (§1) Herbicidal activity of herbicide compositions according to the first aspect of the present invention with regard to different types of unwanted vegetation was determined during trials performed on test fields (field trials). Individual compositions comprising pyridate and individual compositions comprising a defined 4-HPPD inhibitor are compared with a herbicide composition according to the invention comprising both pyridate and a defined 4-HPPD inhibitor. The expected activity of the combination of the active compounds pyridate and a defined 4-HPPD inhibitor is calculated according to above mentioned calculation method by Colby, in order to evaluate a synergistic effect between pyridate and a defined 4-HPPD inhibitor.
(§2) Herbicidal activity was determined by applying herbicide compositions on emerged unwanted vegetation on fields where maize was cultivated. Pyridate and a defined 4-HPPD inhibitor were applied as a tank mixture by mixing these active compounds prior to use in a spray tank. The corresponding mixture was in the form of a spray liquor. Besides, spray liquors of individual compositions comprising pyridate and of individual compositions comprising a defined 4-HPPD inhibitor were used. Test plants of unwanted vegetation with a growth stage corresponding to BBCH 10-18 (according to the extended BBCH-scale) were sprayed with the active compound preparations such that particular desired amounts of active compounds are applied per unit area. Spray liquor was diluted with water to arrive at an application volume of 50 to 450 L/ha. At a specified number of days after application (DAA), the degree of damage to the unwanted vegetation is rated in % of plants of unwanted vegetation that were killed, which was assessed by visually controlling the plants.

[11] = test system: Brassica rapa Canola cultivars; test: Field trial post-emergence in maize: BRSRC; conditions: 13-14 DAA; # = 1; g a.c./ha: PYR 450, TOP 12.4, PYR + TOP 450 + 12.4
Method: as §1, §2

[12] = test system: Chenopodium album; test: Field trial post-emergence in maize: CHEAL; conditions: 13-14 DAA, # = 1
Method: as §1, §2

[13] = test system: Sinapis arvensis; test: Field trial post-emergence in maize: SINAR; conditions: 13-14 DAA; # = 1; g a.c./ha: PYR 450, TOP 12.4, PYR + TOP 450 + 12.4
Method: as §1
(§3) Herbicidal activity was determined by applying herbicide compositions on emerged unwanted vegetation on fields where maize was cultivated. Pyridate and a defined 4-HPPD inhibitor were applied as a tank mixture by mixing these active compounds prior to use in a spray tank. The corresponding mixture was in the form of a spray liquor. […] At a specified number of days after application (DAA), the degree of damage to the unwanted vegetation is rated in % of plants of unwanted vegetation that were killed, which was assessed by visually controlling the plants.

[14] = test system: Bassia scoparia; test: Field trial post-emergence in maize: KCHSC; conditions: 13-14 DAA; # = 2; g a.c./ha: PYR 450, TEM 38, PYR + TEM 450 + 38
Method: as §1, §3

[15] = test system: Lamium amplexicaule; test: Example 6 herbicidal effect: LAMAM; conditions: 7 DAA
[16] = g a.c./ha: PYR 300, SCT 300, PYR + SCT 300 + 300
[17] = g a.c./ha: PYR 450, SCT 450, PYR + SCT 300 + 450
[18] = g a.c./ha: PYR 10, TEM 22, PYR + TEM 10 + 100
[19] = g a.c./ha: PYR 300, TEM 100, PYR + TEM 300 + 100
[20] = g a.c./ha: PYR 900, TEM 44, PYR + TEM 900 + 44
[21] = g a.c./ha: SMO 800, PYR + NIC 300 + 30

COc1cc(OC)nc(NC(=O)NS(=O)(=O)c2ncccc2C(=O)N(C)C)n1 [NIC, nicosulfuron]
herbicidal effect (h.e.) ([1]; NIC 30 g a.c./ha): 7% | herbicidal effect (h.e.) ([2]; NIC 30 g a.c./ha): 17% | herbicidal effect (h.e.) ([3]; NIC 30 g a.c./ha): 33% | herbicidal effect (h.e.) ([4]; NIC 30 g a.c./ha): 6% | herbicidal effect (h.e.) ([5]; NIC 30 g a.c./ha): 38% | herbicidal effect (h.e.) ([6]; NIC 30 g a.c./ha): 75% | herbicidal effect (h.e.) ([7]; NIC 30 g a.c./ha): 24% | herbicidal effect (h.e.) ([8]; NIC 30 g a.c./ha): 32% | herbicidal effect (h.e.) ([9]; NIC 30 g a.c./ha): 37%

Cc1c(C(=O)c2c[nH]n(C)c2=O)ccc(S(C)(=O)=O)c1C1=NOCC1 [TOP, 4-[3-(4,5-dihydro-1,2-oxazol-3-yl)-2-methyl-4-methylsulfonylbenzoyl]-2-methyl-1H-pyrazol-3-one]
herbicidal effect (h.e.) [10]: 18% | herbicidal effect (h.e.) [11]: 50% | herbicidal effect (h.e.) ([12]; g a.c./ha: PYR 450, TOP 12.4, PYR + TOP 450 + 12.4): 1% | herbicidal effect (h.e.) [13]: 50%

CS(=O)(=O)c1ccc(C(=O)C2C(=O)CCCC2=O)c(Cl)c1 [SCT, 2-[2-Chloro-4-(methylsulfonyl)benzoyl]cyclohexane-1,3-dione]
herbicidal effect (h.e.) [1, 16]: 83% | herbicidal effect (h.e.) [1, 17]: 80% | herbicidal effect (h.e.) [2, 16]: 53% | herbicidal effect (h.e.) [2, 17]: 53% | herbicidal effect (h.e.) [3, 16]: 28% | herbicidal effect (h.e.) [3, 17]: 50% | herbicidal effect (h.e.) [4, 16]: 28% | herbicidal effect (h.e.) [4, 17]: 25% | herbicidal effect (h.e.) [5, 16]: 58% | herbicidal effect (h.e.) [5, 17]: 60% | herbicidal effect (h.e.) [6, 16]: 3% | herbicidal effect (h.e.) [6, 17]: 3% | herbicidal effect (h.e.) [7, 16]: 30% | herbicidal effect (h.e.) [7, 17]: 45% | herbicidal effect (h.e.) [8, 16]: 60% | herbicidal effect (h.e.) [8, 17]: 53% | herbicidal effect (h.e.) [9, 16]: 2% | herbicidal effect (h.e.) [9, 17]: 2%

CS(=O)(=O)c1ccc(C(=O)C2C(=O)CCCC2=O)c(Cl)c1COCC(F)(F)F [TEM, 2-[2-chloro-4-methylsulfonyl-3-(2,2,2-trifluoroethoxymethyl)benzoyl]cyclohexane-1,3-dione]
herbicidal effect (h.e.) ([12]; g a.c./ha: PYR 450, TEM 38, PYR + TEM 450 + 38): 0% | herbicidal effect (h.e.) [14]: 40% | herbicidal effect (h.e.) [1, 18]: 8% | herbicidal effect (h.e.) [1, 19]: 53% | herbicidal effect (h.e.) [1, 20]: 53% | herbicidal effect (h.e.) [2, 18]: 40% | herbicidal effect (h.e.) [2, 19]: 80% | herbicidal effect (h.e.) [2, 20]: 85% | herbicidal effect (h.e.) [3, 18]: 8% | herbicidal effect (h.e.) [3, 19]: 33% | herbicidal effect (h.e.) [3, 20]: 20% | herbicidal effect (h.e.) [4, 18]: 15% | herbicidal effect (h.e.) [4, 19]: 100% | herbicidal effect (h.e.) [4, 20]: 70% | herbicidal effect (h.e.) [5, 18]: 83% | herbicidal effect (h.e.) [5, 19]: 85% | herbicidal effect (h.e.) [5, 20]: 95% | herbicidal effect (h.e.) [6, 18]: 10% | herbicidal effect (h.e.) [6, 19]: 32% | herbicidal effect (h.e.) [6, 20]: 13% | herbicidal effect (h.e.) [7, 18]: 68% | herbicidal effect (h.e.) [7, 19]: 78% | herbicidal effect (h.e.) [7, 20]: 96% | herbicidal effect (h.e.) [15, 18]: 25% | herbicidal effect (h.e.) [15, 19]: 40% | herbicidal effect (h.e.) [15, 20]: 100% | herbicidal effect (h.e.) [8, 18]: 59% | herbicidal effect (h.e.) [8, 19]: 99% | herbicidal effect (h.e.) [8, 20]: 95% | herbicidal effect (h.e.) [9, 18]: 0% | herbicidal effect (h.e.) [9, 19]: 100% | herbicidal effect (h.e.) [9, 20]: 18%

CCc1cccc(C)c1N(C(=O)CCl)[C@@H](C)COC [SMO, S-metolachlor]
herbicidal effect (h.e.) [1, 21]: 5% | herbicidal effect (h.e.) [2, 21]: 3% | herbicidal effect (h.e.) [3, 21]: 0% | herbicidal effect (h.e.) [4, 21]: 0% | herbicidal effect (h.e.) [5, 21]: 0% | herbicidal effect (h.e.) [6, 21]: 0% | herbicidal effect (h.e.) [7, 21]: 1% | herbicidal effect (h.e.) [8, 21]: 0% | herbicidal effect (h.e.) [9, 21]: 0%
